Laboratory results: patent US12077503B2, “Substituted cyclic amides and their use as herbicides” (FMC CORPORATION, priority 2015, dated 2024)

Columns and labels:
Type in all cases: in vivo
[1] = system: barnyardgrass (Echinochloa crus-galli); test: Test A preemergence; conditions: Echinochloa crus-galli, pre-emergence, 240 h, 0 to 100 scale where 0 is no effect and 100 is complete control, read-out: Barnyardgrass plant response rating
Outline: (§1)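 Each rating is a visual injury score from 0 to 100 given about 10 d after treatment, judged against untreated controls kept alongside in the greenhouse. In loam soil–sand blend, seeds got a preemergence directed soil spray, while postemergence plants were 2 to 10 cm tall at spraying.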

[2] = system: giant foxtail (Setaria faberii); test: Test A preemergence; conditions: Setaria faberi, pre-emergence, 240 h, 0 to 100 scale where 0 is no effect and 100 is complete control, read-out: Foxtail, Giant plant response rating
Outline: as §1

[3] = system: pigweed (Amaranthus retroflexus); test: Test A preemergence; conditions: Amaranthus retroflexus, pre-emergence, 240 h, 0 to 100 scale where 0 is no effect and 100 is complete control, read-out: Pigweed plant response rating
[4] = system: ragweed (common ragweed, Ambrosia elatior); test: Test A preemergence; conditions: Ambrosia artemisiifolia, pre-emergence, 240 h, 0 to 100 scale where 0 is no effect and 100 is complete control, read-out: Ragweed plant response rating
Outline: as §1

Kochia (Kochia scoparia) [5] = test: Test A preemergence; conditions: Bassia scoparia, pre-emergence, 240 h, 0 to 100 scale where 0 is no effect and 100 is complete control, read-out: Kochia plant response rating
Outline: as §1

[6] = system: ryegrass, Italian (Italian ryegrass, Lolium multiflorum); test: Test A preemergence; conditions: Lolium multiflorum, pre-emergence, 240 h, 0 to 100 scale where 0 is no effect and 100 is complete control, read-out: Ryegrass, Italian plant response rating
Outline: as §1

[7] = system: barnyardgrass (Echinochloa crus-galli); test: Test B flooded paddy test; conditions: Echinochloa crus-galli, 250 g ai/ha, Flood; 0 to 100 scale where 0 is no effect and 100 is complete control; read-out: Barnyardgrass plant response rating
Outline: (§2)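 Visual ratings (0 none to 100 complete control) are relative to untreated plants, taken 13–15 d after treatment in a greenhouse. Test material went straight into floodwater standing 3 cm above the soil, kept constant, on plants at the 2-leaf stage.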

[8] = system: ducksalad (Heteranthera limosa); test: Test B flooded paddy test; conditions: Heteranthera limosa, 250 g ai/ha, Flood; 0 to 100 scale where 0 is no effect and 100 is complete control; read-out: Ducksalad plant response rating
Outline: as §2

rice (Oryra sativa) = test: Test B flooded paddy test; conditions: Oryza sativa, 250 g ai/ha, Flood; 0 to 100 scale where 0 is no effect and 100 is complete control; read-out: Rice plant response rating
Outline: as §2

[9] = system: sedge, umbrella (small-flower umbrella sedge, Cyperus difformis); test: Test B flooded paddy test; conditions: Cyperus difformis, 250 g ai/ha, Flood; 0 to 100 scale where 0 is no effect and 100 is complete control; read-out: Sedge, Umbrella plant response rating
Outline: as §2

[10] = system: barnyardgrass (Echinochloa crus-galli); test: Test A postemergence; conditions: Echinochloa crus-galli, post-emergence, 240 h, read-out: Barnyardgrass plant response rating (0 to 100 scale)
Outline: as §1

[11] = system: blackgrass (Alopecurus myosuroides); test: Test A postemergence; conditions: Alopecurus myosuroides, post-emergence, 240 h, read-out: Blackgrass plant response rating (0 to 100 scale)
Outline: as §1

[12] = system: giant foxtail (Setaria faberii); test: Test A postemergence; conditions: Setaria faberi, post-emergence, 240 h, read-out: Foxtail, Giant plant response rating (0 to 100 scale)
Outline: as §1

corn (Zea mays) = test: Test A postemergence; conditions: Zea mays, post-emergence, 240 h, read-out: Corn plant response rating (0 to 100 scale)
Outline: as §1

[13] = system: pigweed (Amaranthus retroflexus); test: Test A postemergence; conditions: Amaranthus retroflexus, post-emergence, 240 h, read-out: Pigweed plant response rating (0 to 100 scale)
Outline: as §1

[14] = system: ragweed (common ragweed, Ambrosia elatior); test: Test A postemergence; conditions: Ambrosia artemisiifolia, post-emergence, 240 h, read-out: Ragweed plant response rating (0 to 100 scale)
Outline: as §1

[15] = system: Galium (catchweed bedstraw, Galium aparine); test: Test A postemergence; conditions: Galium, post-emergence, 240 h, read-out: Galium plant response rating (0 to 100 scale)
Outline: as §1

Kochia (Kochia scoparia) [16] = test: Test A postemergence; conditions: Bassia scoparia, post-emergence, 240 h, read-out: Kochia plant response rating (0 to 100 scale)
Outline: as §1

[17] = system: wheat (Triticum aestivum); test: Test A postemergence; conditions: Triticum aestivum, post-emergence, 240 h, read-out: Wheat plant response rating (0 to 100 scale)
Outline: as §1

[18] = system: ryegrass, Italian (Italian ryegrass, Lolium multiflorum); test: Test A postemergence; conditions: Lolium multiflorum, post-emergence, 240 h, read-out: Ryegrass, Italian plant response rating (0 to 100 scale)
Outline: as §1

[19] = 125 g ai/ha, preemergence, visual injury rating, approximately 10 d
[20] = 125 g ai/ha, postemergence, visual injury vs untreated controls after approx. 10 d, 0 = no effect, 100 = complete control
[21] = Postemergence, 31 g ai/ha, 0 is no effect, 100 is complete control

`Cc1ccc([C@H]2CN(C)C(=O)[C@@H]2C(=O)Nc2cccc(F)c2C#N)cc1` [Compound 1189] was tested, and the pest or weed control at 31 g/ha ([1]; 31 g ai/ha, Preemergence) was 90%, the pest or weed control at 125 g/ha [1, 19] was 100% and the pest or weed control at 31 g/ha ([2]; 31 g ai/ha, Preemergence) was 90%. For the same compound, the pest or weed control at 125 g/ha [2, 19] was 100%, the pest or weed control at 31 g/ha ([3]; 31 g ai/ha, Preemergence) was 0% and the pest or weed control at 125 g/ha [3, 19] was 40%. For the same compound, the pest or weed control at 31 g/ha ([4]; 31 g ai/ha, Preemergence) was 0%, the pest or weed control at 125 g/ha [4, 19] was 50% and the pest or weed control at 31 g/ha (Kochia (Kochia scoparia) [5]; 31 g ai/ha, Preemergence) was 40%. It also gave a pest or weed control at 125 g/ha (Kochia (Kochia scoparia) [5]; [19]) of 70%, a pest or weed control at 31 g/ha ([6]; 31 g ai/ha, Preemergence) of 20% and a pest or weed control at 125 g/ha [6, 19] of 60%. The pest or weed control at 250 g/ha [7] was 75%, the pest or weed control at 250 g/ha [8] was 100% and the pest or weed control at 250 g/ha (rice (Oryra sativa)) was 15%. For the same compound, the pest or weed control at 250 g/ha [9] was 0%, the pest or weed control at 125 g/ha [10, 20] was 100% and the pest or weed control at 31 g/ha [10, 21] was 70%. For the same compound, the pest or weed control at 125 g/ha [11, 20] was 40%, the pest or weed control at 31 g/ha [11, 21] was 20% and the pest or weed control at 125 g/ha [12, 20] was 80%. The pest or weed control at 31 g/ha [12, 21] was 70%, the plant injury at 125 g/ha (corn (Zea mays); [20]) was 20% and the plant injury at 31 g/ha (corn (Zea mays); [21]) was 0%. For the same compound, the pest or weed control at 125 g/ha [13, 20] was 0%, the pest or weed control at 31 g/ha [13, 21] was 0% and the pest or weed control at 125 g/ha [14, 20] was 40%. It also gave a pest or weed control at 31 g/ha [14, 21] of 0%, a pest or weed control at 125 g/ha [15, 20] of 50% and a pest or weed control at 31 g/ha [15, 21] of 30%. For the same compound, the pest or weed control at 125 g/ha (Kochia (Kochia scoparia) [16]; [20]) was 20%, the pest or weed control at 31 g/ha (Kochia (Kochia scoparia) [16]; [21]) was 0% and the plant injury at 125 g/ha [17, 20] was 20%. The plant injury at 31 g/ha [17, 21] was 0%, the pest or weed control at 125 g/ha [18, 20] was 20% and the pest or weed control at 31 g/ha [18, 21] was 0%.
